Values of other authors as cited in patent US20090175803A1 (priority 2008, published 2009).

Assays:
[1] = tested on: carcinogen-induced preneoplastic lesions; details: mouse mammary organ culture
[2] = tested on: human gastric cancer
[3] = molecular target: T1, PPARA (Homo sapiens, UniProt Q07869)
T1 sequence (Q07869 1-468): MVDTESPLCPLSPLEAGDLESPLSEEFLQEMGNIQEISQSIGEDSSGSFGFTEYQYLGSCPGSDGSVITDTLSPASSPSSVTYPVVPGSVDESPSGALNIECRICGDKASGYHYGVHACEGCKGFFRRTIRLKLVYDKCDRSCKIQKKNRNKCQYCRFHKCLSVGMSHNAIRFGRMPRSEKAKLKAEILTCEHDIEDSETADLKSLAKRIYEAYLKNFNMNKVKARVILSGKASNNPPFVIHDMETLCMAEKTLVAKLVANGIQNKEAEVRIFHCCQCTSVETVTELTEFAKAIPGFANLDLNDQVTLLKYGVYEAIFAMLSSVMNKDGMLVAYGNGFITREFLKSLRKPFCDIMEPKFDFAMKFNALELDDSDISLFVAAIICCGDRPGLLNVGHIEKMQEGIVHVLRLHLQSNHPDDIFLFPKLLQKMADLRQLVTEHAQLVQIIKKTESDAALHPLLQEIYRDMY

[4] = tested on: PGE2 production from LPS-stimulated human peripheral blood mononuclear cells; details: LPS-stimulated human PBMC
[5] = peroxyl-radical scavenging

Q: Which “inhibition of carcinogen-induced preneoplastic lesions” value [1] does the source give for `COc1cc(/C=C/c2ccc(O)cc2)cc(OC)c1` [Pterostilbene, 4-[(E)-2-(3,5-dimethoxyphenyl)ethenyl]phenol] here?
A: significant inhibition

Q: What about the blood glucose (animal studies) of the same compound?
A: can lower blood glucose

Q: And the “lipid and glucose lowering effects” value (in vivo studies)?
A: possesses lipid and glucose lowering effects

Q: What about the “cell proliferation and apoptosis” value [2] of the same compound?
A: inhibit cell proliferation and induce apopotosis in a concentration- and time-dependent manner

Q: And the PPARA agonism [3]?
A: acts as a PPARA agonist

Q: What about the PGE2 production [4] of the same compound?
A: inhibited PGE2 production

Q: And the “total reactive antioxidant potential” value [5]?
A: 237 ± 58 µM
